Holding throughout (details): incubation time: 72 h
In assay [1] the test system is DU-4475. Kind of assay: normalised viability (% of control), CellTiter-Blue; higher = more viable cells (100 = DMSO, 0 = benzethonium chloride kill control). Here is the method:
(§1)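 DSRT, CellTiter-Blue viability, 72 h incubation. Signal is normalised to DMSO and benzethonium chloride controls. Value is the normalised response at dose 1.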
(In general: Alamar Blue is a resazurin reagent that responds to reducing activity.)

The subject of assay [2] is CAL-85-1. The assay is described as above. On the procedure: as §1
The subject of a further assay is Hs578T. Described as above. Here is the method:
as §1

The subject of assay [3] is CAL-148. Described as above. On the procedure: as §1
Assay [4] concerns MDA-MB-453. The description is as above. On the procedure: as §1
The next assay has as its system BT-474. The description is as above. Here is the method: as §1
A further assay deals with BT-549. The assay is described as above. Here is the method: as §1
The subject of the next assay is MDA-MB-231. The description is as above. Here is the method:
as §1

Another assay has as its system HCC1143. The description is as above. Here is the method: as §1
In another assay the test system is MDA-MB-436. Described as above. On the procedure: as §1
A further assay concerns HCC1937. The description is as above. On the procedure:
as §1

Another assay has as its system MDA-MB-468. The assay is described as above. Here is the method: as §1
For assay [5], the system named is CAL-51. The description is as above. Here is the method: as §1
The test system of a further assay is MFM-223. The description is as above. Here is the method:
as §1

The next assay has as its system HCC1599. Described as above. On the procedure:
as §1

The subject of a further assay is CAL-120. The description is as above. Here is the method: as §1
Assay [6] has as its system HDQ-P1. Described as above. Here is the method: as §1
The test system of a further assay is SK-BR-3. The description is as above. On the procedure:
as §1

Assay [7] relates to DU-4475. Kind of assay: normalised viability (% of control), CellTiter-Blue; higher = more viable cells (about 100 = DMSO control). Here is the method: (§2)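 DSRT, CellTiter-Blue viability, 72 h incubation. Signal is normalised to DMSO and benzethonium chloride controls. Value is the normalised response at dose 8.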
The subject of assay [8] is CAL-85-1. The description is as above. Here is the method: as §2
The subject of assay [9] is CAL-148. The assay is described as above. Here is the method: as §2
Assay [10] has as its system MDA-MB-453. The description is as above. On the procedure:
as §2

Assay [11] deals with CAL-51. Described as above. Here is the method: as §2
Assay [12] has as its system HDQ-P1. Described as above. On the procedure: as §2

Each structure is given as a SMILES string.

For the molecule `CCN(CC)CCCC(C)Nc1ccnc2cc(Cl)ccc12` (stereo not given) [Chloroquine] (0.099 nM), the normalised viability with DU-4475 [1] came out at 111%; in the assay with CAL-85-1 [2] it was 87.6%; in the assay with Hs578T it was 101%; in the assay with CAL-148 [3] it was 97.1%; in the assay with MDA-MB-453 [4] it was 107%; with BT-474 it was 100%. The normalised viability in the assay on BT-549 stood at 107%; in the assay on MDA-MB-231, 112%; in the assay with HCC1143, 99.2%; in the assay on MDA-MB-436 it was 111%; with HCC1937, 89.7%; with MDA-MB-468 it was 108%. The normalised viability in the assay on CAL-51 [5] was 90%; in the assay on MFM-223, 102%; with HCC1599, 96.9%; with CAL-120 it was 85.9%; in the assay with HDQ-P1 [6] it was 112%; with SK-BR-3, 91.9%.
For the molecule `C=CCn1c(=O)c2cnc(Nc3ccc(N4CCN(C)CC4)cc3)nc2n1-c1cccc(C(C)(C)O)n1` [MK1775] (3000 nM), the normalised viability in the assay on DU-4475 [7] was found to be 2.03%; in the assay with CAL-85-1 [8], 19.2%; with CAL-148 [9], 6.03%; with MDA-MB-453 [10], 19.3%; in the assay with CAL-51 [11], 7.19%; in the assay on HDQ-P1 [12], 27.3%.
Regarding `CC1(C)CCC(c2ccc(Cl)cc2)=C(CN2CCN(c3ccc(C(=O)NS(=O)(=O)c4ccc(N[C@H](CCN5CCOCC5)CSc5ccccc5)c(S(=O)(=O)C(F)(F)F)c4)cc3)CC2)C1` [Navitoclax] (3000 nM), the normalised viability was determined as 20.1% with DU-4475 [7]; 87.8% with CAL-85-1 [8]; 71% in the assay with CAL-148 [9]; 70.3% in the assay on MDA-MB-453 [10]; 95.3% in the assay on CAL-51 [11]; 43.5% in the assay on HDQ-P1 [12].
For the molecule `CC(=O)[C@]1(O)Cc2c(O)c3c(c(O)c2[C@@H](O[C@H]2C[C@H](N)[C@H](O)[C@H](C)O2)C1)C(=O)c1ccccc1C3=O` [Idarubicin] (300 nM), the normalised viability is 7.47% in the assay with DU-4475 [7]; 47.1% in the assay with CAL-85-1 [8]; 7.71% in the assay with CAL-148 [9]; 68.7% with MDA-MB-453 [10]; 20.9% in the assay with CAL-51 [11]; 48.7% with HDQ-P1 [12].
`COc1c2occc2cc2ccc(=O)oc12` [Methoxsalen] (1 nM): the normalised viability in the assay on DU-4475 [1] came out at 96.2%; with CAL-85-1 [2], 92.3%; in the assay with Hs578T, 103%; with CAL-148 [3], 112%; with MDA-MB-453 [4], 103%; in the assay on BT-474, 79.9%. The normalised viability with BT-549 was determined as 97.6%; with MDA-MB-231 it was 105%; with HCC1143, 101%; in the assay with MDA-MB-436 it was 116%; in the assay on HCC1937 it was 93.8%; in the assay with MDA-MB-468 it was 109%. Further, the normalised viability came out at 100% in the assay on CAL-51 [5]; 93.1% in the assay on MFM-223; 104% with HCC1599; 107% in the assay with CAL-120; 106% in the assay on HDQ-P1 [6]; 104% in the assay on SK-BR-3.
As to `CO[C@@H]1[C@H](N(C)C(=O)c2ccccc2)C[C@H]2O[C@]1(C)n1c3ccccc3c3c4c(c5c6ccccc6n2c5c31)C(=O)NC4` [Midostaurin] (3000 nM), the normalised viability worked out at 3.23% in the assay on DU-4475 [7]; 73.4% in the assay on CAL-85-1 [8]; 84.4% in the assay on CAL-148 [9]; 69.6% in the assay with MDA-MB-453 [10]; 6.39% in the assay on CAL-51 [11]; 50.5% in the assay on HDQ-P1 [12].
As to `COc1ccc(S(=O)(=O)Nc2cccnc2Nc2ccc(O)cc2)cc1` [ABT-751] (3000 nM), the normalised viability is 17.4% in the assay on DU-4475 [7]; 26.8% in the assay on CAL-85-1 [8]; 15% in the assay with CAL-148 [9]; 27.7% in the assay on MDA-MB-453 [10]; 19% with CAL-51 [11]; 37.8% in the assay on HDQ-P1 [12].
`CCNC(=O)c1noc(-c2cc(C(C)C)c(O)cc2O)c1-c1ccc(CN2CCOCC2)cc1` [NVP-AUY922] (300 nM): the normalised viability in the assay with DU-4475 [7] turned out to be 0.62%; in the assay on CAL-85-1 [8] it was 24.6%; in the assay on CAL-148 [9], 16.3%; in the assay with MDA-MB-453 [10] it was 8.88%; with CAL-51 [11], 8.64%; in the assay on HDQ-P1 [12], 30.4%.
In the case of `CCNC(=O)CCC/C=C\C[C@@H]1[C@@H](/C=C/[C@@H](O)CCc2ccccc2)[C@H](O)C[C@@H]1O` [Bimatoprost] (1650 nM), the normalised viability is 120% in the assay on DU-4475 [7]; 102% in the assay with CAL-85-1 [8]; 91.1% with CAL-148 [9]; 92.4% in the assay on MDA-MB-453 [10]; 111% in the assay on CAL-51 [11]; 97.4% in the assay with HDQ-P1 [12].
Turning to `CCN(CC)CCCC(C)Nc1ccnc2cc(Cl)ccc12` (stereo not given) [Chloroquine] (297 nM), the normalised viability in the assay with DU-4475 [7] came out at 85.2%; in the assay on CAL-85-1 [8], 96%; in the assay with CAL-148 [9], 95.9%; in the assay on MDA-MB-453 [10] it was 100%; in the assay with CAL-51 [11] it was 93.4%; with HDQ-P1 [12] it was 118%.
Take `Cc1cc(Nc2nc(N[C@@H](C)c3ncc(F)cn3)ncc2Cl)[nH]n1` [AZD1480] (300 nM): the normalised viability with DU-4475 [7] turned out to be 89.3%; in the assay with CAL-85-1 [8], 106%; in the assay on CAL-148 [9], 106%; in the assay with MDA-MB-453 [10], 94.2%; in the assay on CAL-51 [11] it was 98.8%; with HDQ-P1 [12] it was 122%.

(Values after the supplement of paper PMC4862054.)
